Several values for one entry are separate records, joined by “and”; a condition that tells them apart may be missing. Equal entries are not always repeated. Where two headings read alike, the source gives them in different places.
Experiments:
[1] = target: CB1 (rCB1) (Rattus norvegicus, UniProt P20272); test: Radioligand competition binding, [3H]-CP-55,940, rat brain membranes
[2] = target: hCB1 (Homo sapiens, UniProt P21554); test: bioSensAll ebBRET signaling profiling, hCB1; format: cell-based; design: host or cells: HEK293SL cells, transient PEI transfection; conditions: for Gi1 hCB1 response: Gi1 biosensor; for Gi1 hCB1 / GoB hCB1: single replicate values, FigS6a; for EC50: read-out: EC50 [95% CI]; for Emax: normalized to CP-55,940
Sequence of hCB1 (P21554 whole entry): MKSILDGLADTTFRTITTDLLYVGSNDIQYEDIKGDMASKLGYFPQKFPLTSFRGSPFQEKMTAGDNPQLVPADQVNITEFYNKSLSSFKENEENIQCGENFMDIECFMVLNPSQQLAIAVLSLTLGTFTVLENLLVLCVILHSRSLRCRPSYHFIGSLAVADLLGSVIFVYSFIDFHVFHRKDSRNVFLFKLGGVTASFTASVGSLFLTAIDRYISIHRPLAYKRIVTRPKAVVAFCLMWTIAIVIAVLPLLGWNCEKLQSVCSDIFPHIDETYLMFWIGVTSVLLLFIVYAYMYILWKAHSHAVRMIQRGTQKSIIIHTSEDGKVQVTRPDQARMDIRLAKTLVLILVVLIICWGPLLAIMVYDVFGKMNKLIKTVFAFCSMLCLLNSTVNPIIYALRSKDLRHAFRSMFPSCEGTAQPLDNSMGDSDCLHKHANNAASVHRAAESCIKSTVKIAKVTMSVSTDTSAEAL

Sequence of CB1 (rCB1) (P20272 whole entry): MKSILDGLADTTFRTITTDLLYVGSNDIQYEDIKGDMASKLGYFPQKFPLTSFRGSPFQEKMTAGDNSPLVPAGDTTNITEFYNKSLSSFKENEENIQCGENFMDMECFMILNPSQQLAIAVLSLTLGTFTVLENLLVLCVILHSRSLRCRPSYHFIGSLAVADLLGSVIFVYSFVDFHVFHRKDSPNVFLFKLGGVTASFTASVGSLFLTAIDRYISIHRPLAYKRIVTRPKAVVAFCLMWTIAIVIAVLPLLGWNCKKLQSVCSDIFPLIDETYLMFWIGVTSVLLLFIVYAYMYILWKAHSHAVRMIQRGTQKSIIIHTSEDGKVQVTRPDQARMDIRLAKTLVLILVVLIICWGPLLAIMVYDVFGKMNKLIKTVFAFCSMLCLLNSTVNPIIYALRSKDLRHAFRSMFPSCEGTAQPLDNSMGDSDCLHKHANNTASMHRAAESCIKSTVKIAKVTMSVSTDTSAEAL

CC(=O)C(c1cccs1)N(C)C(=O)c1cc(C)n(-c2cccc(C(F)(F)F)c2)n1 (stereo not shown) [‘6829]
pKi [95% CI] ([1]; rCB1): 6.0 [5.8 – 6.2]
Ki ([1]; read-out: Ki [95% CI], rCB1, [3H]-CP-55,940): 1.05 µM
Gi1 hCB1 response ([2]; Log [Compound] (M) -4.22186): 50.5929
Gi1 hCB1 response ([2]; Log [Compound] (M) -4.63927): 80.4274
Gi1 hCB1 response ([2]; Log [Compound] (M) -5.05788): 60.8884
Gi1 hCB1 response ([2]; Log [Compound] (M) -5.47381): 50.1453
Gi1 hCB1 response ([2]; Log [Compound] (M) -5.89285): 25.0333
Gi1 hCB1 response ([2]; Log [Compound] (M) -6.31878): 14.2679
Gi1 hCB1 response ([2]; Log [Compound] (M) -6.72585): 9.501
Gi1 hCB1 response ([2]; Log [Compound] (M) -7.14267): -0.2577
Gi1 hCB1 response ([2]; Log [Compound] (M) -7.55284): -0.3025
Gi1 hCB1 response ([2]; Log [Compound] (M) -8): -3.011
Gi1 hCB1 response ([2]; Log [Compound] (M) -8.22186): 2.07
Gi1 hCB1 response ([2]; Log [Compound] (M) -8.39794): -6.077
Gi1 hCB1 response ([2]; Log [Compound] (M) -8.68787): 2.45
Gi1 hCB1 response ([2]; Log [Compound] (M) -9.15521): 5.629
Gi1 hCB1 response ([2]; Log [Compound] (M) -9.61989): -3.749
Gi1 hCB1 response ([2]; Log [Compound] (M) -10.0969): -4.958
Gi1 hCB1 response ([2]; Log [Compound] (M) -10.5529): -8.091
Gi1 hCB1 response ([2]; Log [Compound] (M) -11.0177): -9.456
Gi1 hCB1 response ([2]; Log [Compound] (M) -11.4949): -2.585
Gi1 hCB1 response ([2]; Log [Compound] (M) -11.9208): -4.1073
Gi1 hCB1 response ([2]; Log [Compound] (M) -12.3979): -11.8513
Gi1 hCB1 response ([2]; Log [Compound] (M) -12.8861): -4.7116
Gi1 hCB1 response ([2]; Log [Compound] (M) -13, individual replicate values): -0.3696 and -4.085
Gi1 hCB1 ([2]; Log [Compound] (M) -4.22186): 59.6278
GoB hCB1 ([2]; Log [Compound] (M) -4.22186): 46.0809
Gi1 hCB1 ([2]; Log [Compound] (M) -4.63927): 49.4067
GoB hCB1 ([2]; Log [Compound] (M) -4.63927): 48.6345
Gi1 hCB1 ([2]; Log [Compound] (M) -5.05788): 40.28
GoB hCB1 ([2]; Log [Compound] (M) -5.05788): 42.8439
Gi1 hCB1 ([2]; Log [Compound] (M) -5.47381): 35.5317
GoB hCB1 ([2]; Log [Compound] (M) -5.47381): 37.2331
Gi1 hCB1 ([2]; Log [Compound] (M) -5.89285): 23.7381
GoB hCB1 ([2]; Log [Compound] (M) -5.89285): 25.7777
Gi1 hCB1 ([2]; Log [Compound] (M) -6.31878): 13.3781
GoB hCB1 ([2]; Log [Compound] (M) -6.31878): 16.7141
Gi1 hCB1 ([2]; Log [Compound] (M) -6.72585): 9.694
GoB hCB1 ([2]; Log [Compound] (M) -6.72585): 6.7333
Gi1 hCB1 ([2]; Log [Compound] (M) -7.14267): 3.188
GoB hCB1 ([2]; Log [Compound] (M) -7.14267): 2.399
Gi1 hCB1 ([2]; Log [Compound] (M) -7.55284): 5.377
GoB hCB1 ([2]; Log [Compound] (M) -7.55284): 1.374
Gi1 hCB1 ([2]; Log [Compound] (M) -8): 4.359
GoB hCB1 ([2]; Log [Compound] (M) -8): 2.831
Gi1 hCB1 ([2]; Log [Compound] (M) -8.22186): 1.1836
GoB hCB1 ([2]; Log [Compound] (M) -8.22186): -4.488
Gi1 hCB1 ([2]; Log [Compound] (M) -8.39794): 5.593
GoB hCB1 ([2]; Log [Compound] (M) -8.39794): 1.554
Gi1 hCB1 ([2]; Log [Compound] (M) -8.68787): 1.615
GoB hCB1 ([2]; Log [Compound] (M) -8.68787): -3.931
Gi1 hCB1 ([2]; Log [Compound] (M) -9.15521): 2.463
GoB hCB1 ([2]; Log [Compound] (M) -9.15521): -1.036
Gi1 hCB1 ([2]; Log [Compound] (M) -9.61989): 0.7057
GoB hCB1 ([2]; Log [Compound] (M) -9.61989): -1.161
Gi1 hCB1 ([2]; Log [Compound] (M) -10.0969): 1.353
GoB hCB1 ([2]; Log [Compound] (M) -10.0969): -3.463
Gi1 hCB1 ([2]; Log [Compound] (M) -10.5529): 1.137
GoB hCB1 ([2]; Log [Compound] (M) -10.5529): 1.105
Gi1 hCB1 ([2]; Log [Compound] (M) -11.0177): 3.142
GoB hCB1 ([2]; Log [Compound] (M) -11.0177): -0.532
Gi1 hCB1 ([2]; Log [Compound] (M) -11.4949): 2.879
GoB hCB1 ([2]; Log [Compound] (M) -11.4949): 1.392
Gi1 hCB1 ([2]; Log [Compound] (M) -11.9208): 3.126
GoB hCB1 ([2]; Log [Compound] (M) -11.9208): 1.392
Gi1 hCB1 ([2]; Log [Compound] (M) -12.3979): 4.159
GoB hCB1 ([2]; Log [Compound] (M) -12.3979): 2.561
Gi1 hCB1 ([2]; Log [Compound] (M) -12.8861): 3.496
GoB hCB1 ([2]; Log [Compound] (M) -12.8861): 2.705
Gi1 hCB1 ([2]; Log [Compound] (M) -13): 3.327 and 1.677
GoB hCB1 ([2]; Log [Compound] (M) -13): -2.744 and -3.607
pEC50 [95% CI] ([2]; hCB1 Gi1): 5.4 [5.0 – 5.6]
pEC50 [95% CI] ([2]; hCB1 GoB): 6.0 [5.8 – 6.2]
pEC50 [95% CI] ([2]; hCB1 Gz): 5.9 [6.0 – 6.2]
EC50 ([2]; hCB1 Gi1): 4.06 µM
EC50 ([2]; hCB1 Gz): 1.35 µM
Emax ([2]; read-out: Emax [95% CI], hCB1 Gi1): 68%
Emax ([2]; read-out: Emax [95% CI], hCB1 GoB): 49%
Emax ([2]; read-out: Emax [95% CI], hCB1 Gz): 70%

Reference: PMC11882969 (Nature Communications, 2025)
